In ChEMBL document CHEMBL5241120, “Insights into the medicinal chemistry of heterocycles integrated with a pyrazolo[1,5-a]pyrimidine scaffold” (RSC Med Chem, 2022):
Converted amounts (≈) assume the structure as drawn. Values belong to the compound of their own block, whether it stands above or below them.

Experiments:
CHO-K1 = assay: Cytotoxicity against CHO-K1 cells by MTT assay; type: toxicity, cell-based, Cricetulus griseus; design: concentration or dose not given beside the values; details: chinese hamster
Rattus norvegicus = assay: Analgesic activity in Sprague-Dawley rat at 15 mg/kg after 2 hrs by hot plate test; type: functional
MCF7 [1] = assay: Cytotoxicity against human MCF7 cells by SRB assay; type: functional, cell-based
Staphylococcus aureus [2] = assay: Antibacterial activity against Staphylococcus aureus; type: functional
Bacillus subtilis [3] = assay: Antibacterial activity against Bacillus subtilis; type: functional
Pseudomonas aeruginosa [4] = assay: Antibacterial activity against Pseudomonas aeruginosa; type: functional
Escherichia coli [5] = assay: Antibacterial activity against Escherichia coli; type: functional
Fusarium verticillioides = assay: Antifungal activity against Fusarium moniliforme by dry weight method; type: functional
Aspergillus flavus = assay: Antifungal activity against Aspergillus flavus by dry weight method; type: functional; design: unit not given beside the values
Aspergillus niger [6] = assay: Antifungal activity against Aspergillus niger by dry weight method; type: functional
Escherichia coli [7] = assay: Antibacterial activity against Escherichia coli assessed as zone of inhibition; type: functional
[8] = Inhibition of soybean 15-LOX; design: species or system Glycine max
[9] = molecular target: T1, Prostaglandin G/H synthase 1 (Ovis aries, UniProt P05979); assay: Inhibition of ovine COX-1
T1 sequence (P05979 whole entry): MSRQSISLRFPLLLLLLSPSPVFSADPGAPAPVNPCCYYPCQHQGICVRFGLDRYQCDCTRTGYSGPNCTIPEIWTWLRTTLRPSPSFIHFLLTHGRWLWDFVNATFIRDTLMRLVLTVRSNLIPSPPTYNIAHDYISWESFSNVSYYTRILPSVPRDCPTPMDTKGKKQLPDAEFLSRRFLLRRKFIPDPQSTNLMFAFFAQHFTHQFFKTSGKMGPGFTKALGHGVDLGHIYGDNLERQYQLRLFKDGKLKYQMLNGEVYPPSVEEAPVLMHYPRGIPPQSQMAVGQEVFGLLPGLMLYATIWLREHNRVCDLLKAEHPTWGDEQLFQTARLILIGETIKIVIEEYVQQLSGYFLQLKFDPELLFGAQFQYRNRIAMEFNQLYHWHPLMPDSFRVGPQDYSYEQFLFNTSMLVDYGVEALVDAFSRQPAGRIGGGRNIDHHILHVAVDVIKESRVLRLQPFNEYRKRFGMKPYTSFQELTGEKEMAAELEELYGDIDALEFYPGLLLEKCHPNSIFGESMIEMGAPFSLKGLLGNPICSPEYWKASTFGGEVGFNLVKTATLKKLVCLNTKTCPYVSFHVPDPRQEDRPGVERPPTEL

Staphylococcus aureus [10] = assay: Antibacterial activity against Staphylococcus aureus assessed as zone of inhibition; type: functional
Bacillus subtilis [11] = assay: Antibacterial activity against Bacillus subtilis assessed as zone of inhibition; type: functional
Candida albicans = assay: Antifungal activity against Candida albicans assessed as zone of inhibition; type: functional
Aspergillus niger [12] = assay: Antifungal activity against Aspergillus niger assessed as zone of inhibition; type: functional
HepG2 = assay: Cytotoxicity against human HepG2 cells by MTT assay; type: functional, cell-based
MCF7 [13] = assay: Cytotoxicity against human MCF7 cells by MTT assay; type: functional, cell-based
HCT-116 = assay: Cytotoxicity against human HCT-116 cells by MTT assay; type: functional, cell-based
Pseudomonas aeruginosa [14] = assay: Antibacterial activity against Pseudomonas aeruginosa assessed as zone of inhibition; type: functional
Salmonella enterica = assay: Antibacterial activity against Salmonella enterica assessed as zone of inhibition; type: functional

SMILES: Cc1c(NC(=O)c2cnn3cc(-c4ccccc4)cnc23)c(=O)n(-c2ccccc2)n1C
Activity (CHO-K1): 97.1%

SMILES: CC1=Nc2cc(C)nn2C(=O)/C1=N\Nc1ccc(C)cc1
Activity (Rattus norvegicus): 96.7%

SMILES: O=C(C1=CN=C2CC(O)=NN2C1P(=O)(OCCCl)OCCCl)c1ccccc1O (stereo unspecified)
IC50 (MCF7 [1]): 39.7 µg/mL

MIC (Staphylococcus aureus [2]): 7.81 µg/mL (≈ 21.7 µM)
MIC (Bacillus subtilis [3]): 3.9 µg/mL (≈ 10.9 µM)
MIC (Pseudomonas aeruginosa [4]): 7.81 µg/mL (≈ 21.7 µM)
MIC (Escherichia coli [5]): 15.6 µg/mL (≈ 43.5 µM)
SMILES: COc1ccc(Nc2nn3c(-c4ccccc4)ccnc3c2C(N)=O)cc1

SMILES: CSc1nn2c(C)cc(C)nc2c1-c1nc2ccccc2n1C
Activity (Fusarium verticillioides): 0.11
Activity (Aspergillus flavus): 0.3
Activity (Aspergillus niger [6]): 0.27
inhibition zone (IZ) (Escherichia coli [7]): 9 mm

IC50 [8]: 14.2 µM
IC50 [9]: 9.1 µM
SMILES: COc1ccnc(Nc2n[nH]c(N)c2C#N)c1

IC50 [8]: 8.5 µM
SMILES: CC(Cc1ccc(O)c(O)c1)C(C)Cc1ccc(O)c(O)c1 (stereo unspecified) [NORDIHYDROGUAIARETIC ACID]

MIC (Bacillus subtilis [3]): 10 µg/mL (≈ 37 µM)
MIC (Escherichia coli [5]): 10 µg/mL (≈ 37 µM)
SMILES: Cc1cc(NN2C(=O)CCC2=O)n2ncc(C#N)c2n1

SMILES: CSc1nn2c(C)cc(=O)[nH]c2c1-c1nc2ccccc2n1C
Activity (Fusarium verticillioides): 0.12
Activity (Aspergillus flavus): 0.16
Activity (Aspergillus niger [6]): 0.26

SMILES: CSc1nn2c(-c3ccccc3)c(C#N)c(N)nc2c1-c1nc2ccccc2n1C
Activity (Fusarium verticillioides): 0.19
inhibition zone (IZ) (Staphylococcus aureus [10]): 9 mm
Activity (Aspergillus flavus): 0.36
Activity (Aspergillus niger [6]): 0.51

MIC (Staphylococcus aureus [2]): 7.81 µg/mL (≈ 22.7 µM)
MIC (Bacillus subtilis [3]): 3.9 µg/mL (≈ 11.4 µM)
MIC (Pseudomonas aeruginosa [4]): 7.81 µg/mL (≈ 22.7 µM)
MIC (Escherichia coli [5]): 15.6 µg/mL (≈ 45.5 µM)
SMILES: Cc1ccc(-c2ccnc3c(C(N)=O)c(Nc4ccccc4)nn23)cc1
inhibition zone (IZ) (Bacillus subtilis [11]): 9 mm

MIC (Staphylococcus aureus [2]): 7.81 µg/mL (≈ 20.9 µM)
MIC (Bacillus subtilis [3]): 3.9 µg/mL (≈ 10.4 µM)
MIC (Pseudomonas aeruginosa [4]): 7.81 µg/mL (≈ 20.9 µM)
MIC (Escherichia coli [5]): 15.6 µg/mL (≈ 41.8 µM)
SMILES: COc1ccc(Nc2nn3c(-c4ccc(C)cc4)ccnc3c2C(N)=O)cc1

SMILES: COc1ccc(Nc2nn3c(N)c(C#N)c(-c4ccc(C)cc4)nc3c2C(=O)Nc2ccc(Cl)cc2)cc1
inhibition zone (IZ) (Candida albicans): 18 mm
inhibition zone (IZ) (Aspergillus niger [12]): 15 mm

SMILES: CC1=CC(c2ccccc2)n2nc(-c3ccc(C)cc3)cc2N1 (stereo unspecified)
IC50 (HepG2): 10.3 µg/mL
IC50 (MCF7 [13]): 23.8 µg/mL
IC50 (HCT-116): 22.5 µg/mL (≈ 74.7 µM)

SMILES: Cc1ccc(-c2nc3c(/N=N/c4cccc(C(F)(F)F)c4)c(N)nn3c(O)c2C#N)cc1
IC50 (HepG2): 8.47 µg/mL
IC50 (MCF7 [13]): 11.2 µg/mL
IC50 (HCT-116): 12 µg/mL (≈ 27.4 µM)

SMILES: COc1ccc(Nc2nn3c(N)c(C#N)c(-c4cccc(C)c4)nc3c2C(=O)Nc2ccc(Cl)cc2)cc1
inhibition zone (IZ) (Aspergillus niger [12]): 15 mm

SMILES: COc1ccc(-c2ccnc3c(C(N)=O)c(Nc4ccccc4)nn23)cc1
IC50 (MCF7 [1]): 63.1 µM
inhibition zone (IZ) (Pseudomonas aeruginosa [14]): 9 mm
IC50 (HepG2): 79.8 µM
IC50 (MCF7 [13]): 63.4 µM

SMILES: Nc1nc2c(/N=N/c3ccc(C(F)(F)F)cc3)c(N)nn2c(N)c1/N=N/c1ccc(S(=O)(=O)Nc2ncccn2)cc1
IC50 (HepG2): 3.4 µg/mL
IC50 (MCF7 [13]): 1.4 µg/mL
IC50 (HCT-116): 2.4 µg/mL (≈ 4.02 µM)

SMILES: CCOP(=O)(OCC)C1C(C(=O)c2ccccc2O)=CN=C2CC(O)=NN21 (stereo unspecified)
IC50 (MCF7 [1]): 21.9 µg/mL

SMILES: Cc1cc(-n2ncc(C#N)c2N)n2ncc(C#N)c2n1
inhibition zone (IZ) (Candida albicans): 17.1 mm
inhibition zone (IZ) (Bacillus subtilis [11]): 16.1 mm
inhibition zone (IZ) (Escherichia coli [7]): 14.2 mm

SMILES: Cc1ccc(-c2nc3c(/N=N/c4cccc(C(F)(F)F)c4)c(N)nn3c(N)c2C#N)cc1
IC50 (HepG2): 0.64 µg/mL
IC50 (MCF7 [13]): 2.79 µg/mL
IC50 (HCT-116): 1.89 µg/mL (≈ 4.33 µM)

SMILES: COC1=CC(=O)C[C@@H](C)[C@]12Oc1c(Cl)c(OC)cc(OC)c1C2=O [GRISEOFULVIN]
inhibition zone (IZ) (Candida albicans): 16.8 mm

SMILES: Cc1c(NC(=O)c2cnn3c(N)c(-c4ccccc4)cnc23)c(=O)n(-c2ccccc2)n1C
Activity (CHO-K1): 45.75%

SMILES: CC1(C)S[C@@H]2[C@H](NC(=O)[C@H](N)c3ccccc3)C(=O)N2[C@H]1C(=O)O [AMPICILLIN]
inhibition zone (IZ) (Bacillus subtilis [11]): 26 mm
inhibition zone (IZ) (Staphylococcus aureus [10]): 21 mm
inhibition zone (IZ) (Salmonella enterica): 23 mm
inhibition zone (IZ) (Escherichia coli [7]): 25 mm
